Test results as given in article PMC8166343 (Biochemical Journal, 2021).

Experiments:
[1] = tested on: SPIN1 TUDOR; assay type: binding; conditions: 1 h, 4°C; pH 7.5
[2] = tested on: ING3 PHD; assay type: binding; conditions: 1 h, 4°C; pH 7.5
[3] = tested on: TAF3 PHD finger; assay type: binding
[4] = tested on: ING3 PHD finger; assay type: binding
[5] = tested on: PHF23 PHD finger; assay type: binding
[6] = tested on: PHF2 PHD; assay type: binding; conditions: 1 h, 4°C; pH 7.5
[7] = tested on: PHF2 PHD finger; assay type: binding
[8] = tested on: KDM7A PHD finger; assay type: binding
[9] = tested on: Set7/9; assay type: biochemical; conditions: pH 8.5
[10] = tested on: endogenous SPIN1; assay type: binding; conditions: 1 h, 4°C
[11] = tested on: endogenous PHF2; assay type: binding; conditions: 1 h, 4°C

Row | Substance | pull-down of GST-SPIN1 TUDOR [1] | pull-down of GST-ING3 PHD [2] | interaction with TAF3 PHD finger [3] | interaction with ING3 PHD finger [4] | interaction with PHF23 PHD finger [5] | pull-down of GST-PHF2 PHD [6] | interaction with PHF2 PHD finger [7] | interaction with KDM7A PHD finger [8] | methylation by Set7/9 [9] | enrichment of endogenous SPIN1 [10] | enrichment of endogenous PHF2 [11]
1 | PRRK(me3)QQAPRRSA-Biotin (PRRKQQAPRRSA) [TSHZ1 K4me3] | interacted | methylation-dependent interactions | bound | bound | – | – | – | – | – | – | –
2 | SRRK(me3)QGNPQHLS-Biotin [BCL11B K4me3] | interacted | – | interacted | – | selectively interacted | strongly interacted | interacted | interacted | could not methylate | enriched | very weakly
3 | VRTK(me3)ADSVPGTY-Biotin [PCLAF K4me3] | – | – | – | – | – | – | – | only recognized KDM7A | – | – | –
